This is an account of results in article PMC3394770, “Ipomoelin, a Jacalin-Related Lectin with a Compact Tetrameric Association and Versatile Carbohydrate Binding Properties Regulated by Its N Terminus” (PLoS ONE, 2012).

Data set [1] addresses T1, IPO (Ipomoelin) (Ipomoea batatas, UniProt P93193).
T1 construct: full length (residues 1-154), His-tagged, expressed in E. coli BL21(DE3) from pTZ18UH-IPO
T1 sequence (P93193 1-154): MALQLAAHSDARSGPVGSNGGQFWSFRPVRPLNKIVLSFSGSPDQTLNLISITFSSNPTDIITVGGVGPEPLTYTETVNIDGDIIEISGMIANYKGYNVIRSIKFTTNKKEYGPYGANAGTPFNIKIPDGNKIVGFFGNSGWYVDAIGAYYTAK
The data set is described as follows: isothermal titration calorimetry, one-site fit. The class given is binding. To be noted: for Kd: read-out: K A(10^3 M^-1) (converted). For orientation: Isothermal titration calorimetry measures the heat released or taken up as one component is titrated into another.

In data set [2] the target is T2, ΔN10IPO (Ipomoea batatas, UniProt P93193).
T2 construct: gene IPO; N-terminal residues 1-10 removed, Histrap-purified, expressed in E. coli BL21(DE3) from pTZ18UH-ΔN10IPO
The experiment in a line: isothermal titration calorimetry, one-site fit. The class given is binding. To be noted: 20 mM Tris-HCl, 150 mM NaCl pH 7.0, 25 °C; n fixed at 1.0; read-out: K A(10^3 M^-1) (converted). From the text:
isothermal titration calorimetry, one-site fit on ΔN10IPO

Data set [3] concerns the molecule itself. The experiment in a line: crystal structure; hanging-drop vapor diffusion at room temperature; apo IPO and co-crystals with Me-Man, Me-Glc and Me-Gal in four space groups; tetramer in the asymmetric unit or by symmetric operations; interface analysed on IPO–Me-Glc with PDBe PISA.
[4] abbreviates: 20 mM Tris-HCl, 150 mM NaCl pH 7.0, 25 °C, n fixed at 1.0.

Read-outs that look alike come from different tables or passages of the source.

Consider `OC[C@H]1OC(O)[C@H](O)[C@@H](O)[C@H]1O` (stereo partly drawn) [Gal], for which the KA in data set [1] (setting [4]) is on record as 0.57×10^2.
Same read-out and setting: as for `OC[C@H]1OC(O)[C@@H](O)[C@@H](O)[C@@H]1O` (stereo partly drawn) [Man], the figure is 1.05×10^2.
Consider `CO[C@H]1O[C@H](CO)[C@H](O)[C@H](O)[C@H]1O` [Me-Gal, methyl α-D-galactopyranoside], for which the Kd in data set [1] was 244 µM.
As for `CO[C@H]1O[C@H](CO)[C@@H](O)[C@H](O)[C@H]1O` [Me-Glc, methyl α-D-glucopyranoside], the Kd in data set [2] is 73.5 µM; in data set [1] (setting [4]) it was 498 µM.
In the same order, the values of `CO[C@H]1O[C@H](CO)[C@@H](O)[C@H](O)[C@@H]1O` [Me-Man, methyl α-D-mannopyranoside] are 26.4 µM and 142 µM.
Consider `OC[C@H]1OC(O)[C@H](O)[C@@H](O)[C@@H]1O` (stereo partly drawn) [Glc], for which the KA in data set [1] (setting [4]) is 0.32×10^2.

B1: Ipomoelin (IPO) (natural protein, UniProt P93193 1-154, looked up)
chain: T1 sequence (P93193 1-154)
notes: Ipomoelin (IPO), Jacalin-related lectin of sweet potato (Ipomoea batatas cv. Tainung 57); gene GenBank D89823.1, protein GenBank BAA14024.1; monomer of residues 1 to 154; recombinant IPO with a His tag is 17.3 kDa as a monomer and 69.2 kDa as a tetramer; also called wildtype IPO; native IPO; source: E. coli BL21 (DE3), purified (Histrap FF)
Usually stoichiometry N stands for a count of units in the complex or per binding partner. Regarding B1, the “stoichiometry N” value in data set [3] came to 4.
